From patent US20250179103A1, “6-OXODECAHYDROPYRROLO[1,2-A][1,5]DIAZOCINE AND 6-OXODECAHYDRO-4H-PYRROLO[2,1-D][1,5]THIAZOCINE DERIVATIVES AS STAT3 AND STAT6 MODULATORS FOR THE TREATMENT OF CANCER AND INFLAMMATORY CONDITIONS” (Recludix Pharma, Inc., priority 2022, published 2025)

Key:
[1] = biological target: T1, Recombinant STAT3 protein (STAT3(G127-I722)) (Homo sapiens, UniProt P40763); assay: STAT3 Fluorescence Polarization (FP) Assay; type: binding; conditions: STAT3(G127-I722) 25 nM, probe 5-FAM-GpYLPQTV-NH2 2 nM, 45-minute incubation
T1 construct: Recombinant STAT3 protein (STAT3(G127-I722))
Procedure, shortened: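 Fluorescence polarization after a 45-min room-temperature incubation measured compound displacement of a 2 nM fluorescein-labelled phosphotyrosine peptide (5-FAM-GpYLPQTV-NH2) from 25 nM recombinant STAT3(G127-I722). Buffer was 10 mM HEPES pH 7.4 with 1% DMSO final. IC50s were fitted by nonlinear regression of mP against log concentration.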

[2] = biological target: T2, Recombinant STAT6 protein (STAT6(W123-T658)) (Homo sapiens, UniProt P42226); assay: STAT6 Fluorescence Polarization (FP) Assay; type: binding; conditions: STAT6(W123-T658) 250 nM, probe 5-FAM-ApYKPFQDLI-NH2 2 nM, 45-minute incubation
T2 construct: Recombinant STAT6 protein (STAT6(W123-T658))
T2 sequence (P42226 123-658): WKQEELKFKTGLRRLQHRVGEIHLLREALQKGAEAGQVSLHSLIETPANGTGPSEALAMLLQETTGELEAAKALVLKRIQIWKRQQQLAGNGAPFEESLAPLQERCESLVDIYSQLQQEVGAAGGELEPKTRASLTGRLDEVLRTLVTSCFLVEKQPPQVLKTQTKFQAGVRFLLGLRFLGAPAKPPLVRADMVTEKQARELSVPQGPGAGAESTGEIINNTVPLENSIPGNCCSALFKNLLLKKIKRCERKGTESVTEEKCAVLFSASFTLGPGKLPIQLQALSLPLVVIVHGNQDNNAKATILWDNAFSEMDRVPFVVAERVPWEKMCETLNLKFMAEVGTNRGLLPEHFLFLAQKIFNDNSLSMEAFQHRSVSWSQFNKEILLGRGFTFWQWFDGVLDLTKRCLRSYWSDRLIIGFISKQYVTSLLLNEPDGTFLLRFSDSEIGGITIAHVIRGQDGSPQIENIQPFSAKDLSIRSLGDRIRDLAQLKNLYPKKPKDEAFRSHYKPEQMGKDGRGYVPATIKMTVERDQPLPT
Procedure, shortened: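 Displacement of a fluorescent phosphotyrosine peptide (5-FAM-ApYKPFQDLI-NH2, 2 nM) from STAT6(W123-T658) (250 nM), 1% DMSO, pH 7.4 HEPES buffer. After 45 min at room temperature, polarization (mP) was plotted versus log compound concentration and fitted by nonlinear regression to give IC50.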

T1 sequence (P40763 127-722): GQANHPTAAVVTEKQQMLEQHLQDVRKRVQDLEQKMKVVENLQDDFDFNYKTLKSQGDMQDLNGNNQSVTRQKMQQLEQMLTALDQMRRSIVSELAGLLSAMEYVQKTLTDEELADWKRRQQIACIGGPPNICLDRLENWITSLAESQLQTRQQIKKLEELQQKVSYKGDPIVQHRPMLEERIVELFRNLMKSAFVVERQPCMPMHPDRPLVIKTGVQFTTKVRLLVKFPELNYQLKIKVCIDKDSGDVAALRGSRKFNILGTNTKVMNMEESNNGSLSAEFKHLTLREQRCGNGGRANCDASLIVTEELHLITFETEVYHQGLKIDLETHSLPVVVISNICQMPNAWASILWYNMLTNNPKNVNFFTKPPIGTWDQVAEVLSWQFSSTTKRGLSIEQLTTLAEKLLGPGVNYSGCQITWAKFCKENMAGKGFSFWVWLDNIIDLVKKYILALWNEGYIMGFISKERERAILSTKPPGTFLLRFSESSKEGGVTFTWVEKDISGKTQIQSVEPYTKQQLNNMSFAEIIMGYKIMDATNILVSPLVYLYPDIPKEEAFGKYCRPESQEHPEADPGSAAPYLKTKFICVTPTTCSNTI

## CC(=O)N1CC[C@H]2CC[C@@H](C(=O)Nc3ccc(OCCCN(C)C)cc3)N2C(=O)[C@@H](NC(=O)c2cc3cc(C(F)(F)P(=O)(O)O)ccc3s2)C1 [Compound 73, ((2-(((5S,8S,10aR)-3-acetyl-8-((4-(3-(dimethylamino)propoxy)phenyl)carbamoyl)-6-oxodecahydropyrrolo[1,2-a][1,5]diazocin-5-yl)carbamoyl)benzo[b]thiophen-5-yl)difluoromethyl)phosphonic acid]
[1]
  IC50: 1 to 10 µM
[2]
  IC50: 3 to 30 µM

## CC(=O)N1CC[C@H]2CC[C@@H](C(=O)N3C[C@@H](C#N)C[C@H](c4ccccc4)C3)N2C(=O)[C@@H](NC(=O)c2cc3cc(C(F)(F)P(=O)(O)O)ccc3s2)C1 (relative stereo) [Compound 153, ((2-(((5S,8S,10aR)-3-acetyl-8-((rel-trans)-3-cyano-5-phenylpiperidine-1-carbonyl)-6-oxodecahydropyrrolo[1,2-a][1,5]diazocin-5-yl)carbamoyl)benzo[b]thiophen-5-yl)difluoromethyl)phosphonic acid]
[1]
  IC50: 1 to 10 µM
[2]
  IC50: 0.3 to 3 µM

## N#C[C@@H]1CN(C(=O)[C@@H]2CC[C@@H]3CCN(CC(F)F)C[C@H](NC(=O)c4ccc5ccc(C(F)(F)P(=O)(O)O)cc5c4)C(=O)N32)C[C@H]1c1ccccc1 (single isomer, unassigned) [Compound 248, ((7-(((5S,8S,10aR)-8-((3S,4R or 3R,4S)-3-cyano-4-phenylpyrrolidine-1-carbonyl)-3-(2,2-difluoroethyl)-6-oxodecahydropyrrolo[1,2-a][1,5]diazocin-5-yl)carbamoyl)naphthalen-2-yl)difluoromethyl)phosphonic acid]
[1]
  IC50: 1 to 10 µM
[2]
  IC50: ≤ 0.3 µM

## CC(=O)N1CC[C@H]2CC[C@@H](C(=O)N3CCC4(C3)C(=O)Nc3ccccc34)N2C(=O)[C@@H](NC(=O)c2cc3cc(C(F)(F)P(=O)(O)O)ccc3s2)C1 (stereo partly drawn) [Compound 76, ((2-(((5S,8S,10aR)-3-acetyl-6-oxo-8-(2-oxospiro[indoline-3,3′-pyrrolidine]-1′-carbonyl)decahydropyrrolo[1,2-a][1,5]diazocin-5-yl)carbamoyl)benzo[b]thiophen-5-yl)difluoromethyl)phosphonic acid]
[1]
  IC50: 0.1 to 1 µM
[2]
  IC50: 0.3 to 3 µM

## O=C(N[C@H]1CN(C(=O)c2ncn3c2CCCC3)CC[C@H]2CC[C@@H](C(=O)N3CCOCC3)N2C1=O)c1ccc2ccc(C(F)P(=O)(O)O)cc2c1 (stereo partly drawn) [Compound 364, (fluoro(7-(((5S,8S,10aR)-8-(morpholine-4-carbonyl)-6-oxo-3-(5,6,7,8-tetrahydroimidazo[1,5-a]pyridine-1-carbonyl)decahydropyrrolo[1,2-a][1,5]diazocin-5-yl)carbamoyl)naphthalen-2-yl)methyl)phosphonic acid]
[1]
  IC50: > 10 µM
[2]
  IC50: 0.3 to 3 µM

## CCC(=O)N(C)[C@@H]1CCN(C(=O)[C@@H]2CC[C@@H]3CCN(C(C)=O)C[C@H](NC(=O)c4cc5cc(C(F)(F)P(=O)(O)O)ccc5[nH]4)C(=O)N32)C1 [Compound 23, ((2-(((5S,8S,10aR)-3-acetyl-8-((R)-3-(N-methylpropionamido)pyrrolidine-1-carbonyl)-6-oxodecahydropyrrolo[1,2-a][1,5]diazocin-5-yl)carbamoyl)-1H-indol-5-yl)difluoromethyl)phosphonic acid]
[1]
  IC50: 1 to 10 µM
[2]
  IC50: 0.3 to 3 µM

## CC(=O)N1CC[C@H]2CC[C@@H](C(=O)N3CCC[C@H]3Cc3ccccc3)N2C(=O)[C@@H](NC(=O)c2cc3cc(C(F)(F)P(=O)(O)O)ccc3s2)C1 [Compound 186, ((2-(((5S,8S,10aR)-3-acetyl-8-((S)-2-benzylpyrrolidine-1-carbonyl)-6-oxodecahydropyrrolo[1,2-a][1,5]diazocin-5-yl)carbamoyl)benzo[b]thiophen-5-yl)difluoromethyl)phosphonic acid]
[1]
  IC50: 1 to 10 µM
[2]
  IC50: ≤ 0.3 µM

## Cc1ccc2onc(C(=O)N3CC[C@H]4CC[C@@H](C(=O)N5C[C@H](c6cc[nH]c(=O)c6)CC56CC6)N4C(=O)[C@@H](NC(=O)c4ccc5ccc(C(F)(F)P(=O)(O)O)cc5c4)C3)c2c1 [Compound 381, (difluoro(7-(((5S,8S, 10aR)-3-(5-methylbenzo[d]isoxazole-3-carbonyl)-6-oxo-8-((S)-6-(2-oxo-1,2-dihydropyridin-4-yl)-4-azaspiro[2.4]heptane-4-carbonyl)decahydropyrrolo [1,2-a][1,5]diazocin-5-yl)carbamoyl)naphthalen-2-yl)methyl)phosphonic acid]
[1]
  IC50: 1 to 10 µM
[2]
  IC50: ≤ 0.3 µM

## CC(=O)N1CC[C@H]2CC[C@@H](C(=O)N(C)c3ccc4oncc4c3)N2C(=O)[C@@H](NC(=O)c2cc3cc(C(F)(F)P(=O)(O)O)ccc3s2)C1 [Compound 49, ((2-(((5S,8S,10aR)-3-acetyl-8-(benzo[d]isoxazol-5-yl(methyl)carbamoyl)-6-oxodecahydropyrrolo[1,2-a][1,5]diazocin-5-yl)carbamoyl)benzo[b]thiophen-5-yl)difluoromethyl)phosphonic acid]
[1]
  IC50: 1 to 10 µM
[2]
  IC50: 3 to 30 µM

## CC(=O)N1CC[C@H]2CC[C@@H](C(=O)N3CCC(c4cnc5n4CCCC5)C3)N2C(=O)[C@@H](NC(=O)c2cc3cc(C(F)(F)P(=O)(O)O)ccc3s2)C1 (stereo partly drawn) [Compound 81, ((2-(((5S,8S,10aR)-3-acetyl-6-oxo-8-(3-(5,6,7,8-tetrahydroimidazo[1,2-a]pyridin-3-yl)pyrrolidine-1-carbonyl)decahydropyrrolo[1,2-a][1,5]diazocin-5-yl)carbamoyl)benzo[b]thiophen-5-yl)difluoromethyl)phosphonic acid]
[1]
  IC50: 0.1 to 1 µM
[2]
  IC50: 0.3 to 3 µM

## CC(=O)N1CC[C@H]2CC[C@@H](C(=O)Nc3c(C)cc(-c4ccccc4)cc3C)N2C(=O)[C@@H](NC(=O)c2cc3cc(C(F)(F)P(=O)(O)O)ccc3s2)C1 [Compound 44, ((2-(((5S,8S,10aR)-3-acetyl-8-((3,5-dimethyl-[1,1′-biphenyl]-4-yl)carbamoyl)-6-oxodecahydropyrrolo[1,2-a][1,5]diazocin-5-yl)carbamoyl)benzo[b]thiophen-5-yl)difluoromethyl)phosphonic acid]
[1]
  IC50: 0.1 to 1 µM
[2]
  IC50: 3 to 30 µM

## CC(=O)N1CC[C@H]2CC[C@@H](C(=O)N(C)c3ccc(C4(C)COC4)cc3)N2C(=O)[C@@H](NC(=O)c2cc3cc(C(F)(F)P(=O)(O)O)ccc3s2)C1 [Compound 47, ((2-(((5S,8S,10aR)-3-acetyl-8-(methyl(4-(3-methyloxetan-3-yl)phenyl)carbamoyl)-6-oxodecahydropyrrolo[1,2-a][1,5]diazocin-5-yl)carbamoyl)benzo[b]thiophen-5-yl)difluoromethyl)phosphonic acid]
[1]
  IC50: 1 to 10 µM
[2]
  IC50: 0.3 to 3 µM

## CC(=O)N1CC[C@H]2CC[C@@H](C(=O)N(c3ccccc3)c3ccccc3)N2C(=O)[C@@H](NC(=O)c2cc3cc(C(F)(F)P(=O)(O)O)ccc3[nH]2)C1 [Compound 55, ((2-(((5S,8S,10aR)-3-acetyl-8-(diphenylcarbamoyl)-6-oxodecahydropyrrolo[1,2-a][1,5]diazocin-5-yl)carbamoyl)-1H-indol-5-yl)difluoromethyl)phosphonic acid]
[1]
  IC50: 1 to 10 µM
[2]
  IC50: 0.3 to 3 µM

## CCC(=O)N1CC[C@@H](NC(=O)[C@@H]2CC[C@@H]3CCN(C(C)=O)C[C@H](NC(=O)c4cc5cc(C(F)(F)P(=O)(O)O)ccc5[nH]4)C(=O)N32)C1 [Compound 34, ((2-(((5S,8S,10aR)-3-aceytl-6-oxo-8-(((R)-1-propionylpyrrolidin-3-yl)carbamoyl)decahydropyrrolo[1,2-a][1,5]diazocin-5-yl)carbamoyl)-1H-indol-5-yl)difluoromethyl)phosphonic acid]
[1]
  IC50: 0.1 to 1 µM
[2]
  IC50: 0.3 to 3 µM

## Cc1ccc2onc(C(=O)N3CC[C@H]4CC[C@@H](C(=O)N5CCOCC5)N4C(=O)[C@@H](NC(=O)c4ccc5cnc(CP(=O)(O)O)cc5c4)C3)c2c1 [Compound 394, ((6-(((5S,8S,10aR)-3-(5-methylbenzo [d]isoxazole-3-carbonyl)-8-(morpholine-4-carbonyl)-6-oxodecahydropyrrolo [1,2-a][1,5]diazocin-5-yl)carbamoyl)isoquinolin-3-yl)methyl) phosphonic acid]
[1]
  IC50: > 10 µM
[2]
  IC50: 3 to 30 µM

## CCN(C)CCCN(C)C(=O)[C@@H]1CC[C@@H]2CCN(C(C)=O)C[C@H](NC(=O)c3cc4cc(C(F)(F)P(=O)(O)O)ccc4[nH]3)C(=O)N21 [Compound 33, ((2-(((5S,8S,10aR)-3-acetyl-8-((3-(ethyl(methyl)amino)propyl)(methyl)carbamoyl)-6-oxodecahydropyrrolo[1,2-a][1,5]diazocin-5-yl)carbamoyl)-1H-indol-5-yl)difluoromethyl)phosphonic acid]
[1]
  IC50: 1 to 10 µM
[2]
  IC50: 3 to 30 µM
